Data: US5064850A, “Dihydro-3,3-diphenyl-5-(1H-pyrazol-1-ylmethyl-2(3H)-furanone and dihydro-5-((substituted-1H-pyrazol-1-yl)methyl)-3,3-diphenyl-2(3H)-furan one derivatives” (Marion Merrell Dow Inc., priority 1991, dated 1991)
Structures can show the parent of a compound that is named as a salt.

Legend:
[1] = tested on: isolated guinea pig ileum; details: cited from earlier work
[2] = target: T1, postsynaptic muscarinic cholinergic receptors on intestinal (ileal-longitudinal) smooth muscle (Cavia porcellus, UniProt H0W1Z3); assay: Antimuscarinic Test Protocol: antagonism of carbachol-induced contraction of ileum strips (Table 1); type: cell-based, guinea pig; details: carbachol as agonist, read-out: Anti-muscarinic Activity Kb
T1 construct: The longitudinal muscle, with the myenteric plexus attached, is separated from the underlying circular muscle; from tissue; host or cells: guinea pig ileum, longitudinal muscle strip with myenteric plexus attached
T1 sequence (H0W1Z3 1-590): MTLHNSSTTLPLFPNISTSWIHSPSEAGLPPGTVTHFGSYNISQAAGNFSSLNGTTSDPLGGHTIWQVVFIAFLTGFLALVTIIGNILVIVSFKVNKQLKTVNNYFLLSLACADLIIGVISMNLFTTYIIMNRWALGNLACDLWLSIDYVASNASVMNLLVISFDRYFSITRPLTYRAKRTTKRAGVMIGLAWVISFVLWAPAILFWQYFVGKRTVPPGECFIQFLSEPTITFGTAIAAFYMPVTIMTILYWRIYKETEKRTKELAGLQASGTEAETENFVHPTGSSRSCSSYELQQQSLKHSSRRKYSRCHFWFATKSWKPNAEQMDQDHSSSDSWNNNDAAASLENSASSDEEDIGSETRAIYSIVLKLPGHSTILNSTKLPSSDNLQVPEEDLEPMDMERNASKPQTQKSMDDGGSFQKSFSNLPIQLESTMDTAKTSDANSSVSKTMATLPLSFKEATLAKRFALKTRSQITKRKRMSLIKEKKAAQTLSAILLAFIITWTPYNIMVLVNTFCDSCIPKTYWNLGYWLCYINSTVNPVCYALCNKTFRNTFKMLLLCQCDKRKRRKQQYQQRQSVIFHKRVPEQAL
Procedure: Antimuscarinic Test Protocol.
Male albino guinea pigs are killed by decapitation or cervical dislocation. The cavity is opened and the small intestine is removed, with about 10 cm of the terminal ileum being discarded. The intestine is placed in a Petri dish that contains Tyrodes solution (137 mM NaCl, 2.78 mM KCl, 1.8 mM CaCl2.2H2 O, 1.1 mM MgCl2.6H2 O, 0.4 mM […], 11.8 mM NaHCO3, 5.6 mM dextrose) and cut into 3-4 cm segments. The segments are preferentially taken from the aboral end of the ileum. Each segment is carefully stretched onto a glass rod 6 mm in diameter and the remaining mesenteric tissue is cut away. The longitudinal muscle, with the myenteric plexus attached, is separated from the underlying circular muscle by gently stroking with a cotton-tipped applicator soaked in Tyrodes solution on a tangent away from the shallow longitudinal incisions made parallel to the mesenteric attachment. Using gentle traction, and taking care to keep the segment moist throughout the whole procedure, the tissue is stripped from the whole length of the segment (Paton and Zar, J. Physiol. 194:13, 1968).
Tissues are suspended with 5-0 silk suture in 10 mL water-jacketed glass tissue baths containing Tyrodes solution maintained at 37° C. and aerated with 95% O2 /5% CO2. The suture connects each tissue to an isometric force-displacement transducer (Grass or Gould) coupled to a physiograph. Each preparation is suspended under a resting tension of 0.3 g and allowed to equilibrate for 36 minutes. During this period, the baths are emptied and filled every 12 minutes with 10 mL of warm Tyrodes solution. At the end of this equilibration period, each muscle strip is conditioned by adding 10 mM carbachol to the baths. The drug remains in contact with each tissue for 1-2 minutes and then is removed from the bath with 4 rapid rinses of 10 mL of warm Tyrodes solution. The preparations are allowed to recover for an additional 12 minutes before being used in experiments.
Carbachol is dissolved in saline to produce 2×10^-2 M stock concentrations. Serial dilutions (1:10) in saline or water are made from the stock solution. Appropriate volumes of these solutions are added cumulatively to the 10 mL tissue baths in order to obtain the desired bath concentrations.
Compounds that are soluble in water or saline are dissolved in these solvents to produce 2×10^-2 or 2×10^-3 M stock concentrations. Small amounts of 1 N HCl, NaOH, or 95 ethanol may be added for those agents that are not soluble in water or saline alone. […] in dimethylsulfoxide (DMSO) to produce 4×10^-2 M stock solutions. Serial dilutions (1:10) in water are made from the stock solution. Other solvents may be used when appropriate and will be specifically described in the experimental procedure. Appropriate volumes are then added to the baths in order to obtain the desired bath concentrations.
Appropriate volumes of carbachol solutions are cumulatively added to the 10 mL tissue baths to increase the concentration of carbachol in the bath step-by-step without washing out after each single dose. With each concentration step, the tissue contracts isometrically. The next concentration is added only after the preceding contraction has reached a steady value. […] The tissue is then washed with 4 rapid rinses of 10 mL of warm Tyrodes solution and allowed to recover for 12 minutes [Van Rossum et al., Arch. Int. Pharmacodyn. 143:240, (1963) and 143:299, (1963)]. Antagonism of carbachol responses in the presence of antagonist is determined by repeating the cumulative addition procedure after the tissue has been exposed to the […] for 5 minutes.
Three or four different concentrations of antagonist are studied in the same preparations. Responses are expressed relative to the maximum contraction elicited by carbachol in the absence of antagonist.

Kb [2] [nM] | Compound | prevention of contractions of isolated guinea pig ileum [1]
– | CN(C)CC1CC(c2ccccc2)(c2ccccc2)OC1=O (centres unmarked) [3-[(dimethylamino)methyl]-4,5-dihydro-5,5-diphenyl-2(3H)furanone] | prevents contractions of isolated guinea pig ileum
50 | O=C1OC(Cn2cccn2)CC1(c1ccccc1)c1ccccc1 (centres unmarked) [Dihydro-3,3-diphenyl-5-(1H-pyrazol-1-ylmethyl)-2(3H)-furanone] | –
1000 | Cc1cc(C)n(CC2CC(c3ccccc3)(c3ccccc3)C(=O)O2)n1 (centres unmarked) [Dihydro-5-[(3,5-dimethyl-1H-pyrazol-1-yl)methyl]-3.3-diphenyl-2(3H)-furanone hydrochloride] | –
239 | Cc1ccn(CC2CC(c3ccccc3)(c3ccccc3)C(=O)O2)n1 (centres unmarked) [Dihydro-5-[(3-methyl-1H-pyrazol-1-yl)methyl]-3,3-diphenyl-2(3H)-furanone] | –
251 | Cc1cnn(CC2CC(c3ccccc3)(c3ccccc3)C(=O)O2)c1 (centres unmarked) [Dihydro-5-[(4-methyl-1H-pyrazol-1-yl)methyl]-3,3-diphenyl-2(3H)-furanone] | –
49 | CC[n+]1cccn1CC1CC(c2ccccc2)(c2ccccc2)C(=O)O1 (centres unmarked) [Ethyl dihydro-3,3-diphenyl-5-(1H-pyrazol-1-ylmethyl)-2(3H)-furanone chloride] | –
52 | CC[n+]1c(C)ccn1CC1CC(c2ccccc2)(c2ccccc2)C(=O)O1 (centres unmarked) [Ethyl dihydro-5-[(3-methyl-1H-pyrazol-1-yl)methyl]-3,3-diphenyl-2(3H)-furanone chloride hydrate] | –
148 | CC[n+]1cc(C)cn1CC1CC(c2ccccc2)(c2ccccc2)C(=O)O1 (centres unmarked) [Ethyl dihydro-5-[(4-methyl-1H-pyrazol-1-yl)methyl]-3,3-diphenyl-2(3H)-furanone chloride hydrate] | –
100 | C[n+]1cccn1CC1CC(c2ccccc2)(c2ccccc2)C(=O)O1 (centres unmarked) [Methyl dihydro-3,3-diphenyl-5-(1H-pyrazol-1-ylmethyl)-2(3H)-furanone chloride hydrate] | –
142 | Cc1ccn(CC2CC(c3ccccc3)(c3ccccc3)C(=O)O2)[n+]1C (centres unmarked) [Methyl dihydro-5-[(3-methyl-1H-pyrazol-1-yl)methyl]-3,3-diphenyl-2(3H)-furanone chloride hydrate] | –
117 | Cc1cn(CC2CC(c3ccccc3)(c3ccccc3)C(=O)O2)[n+](C)c1 (centres unmarked) [Methyl dihydro-5-[(4-methyl-1H-pyrazol-1-yl)methyl]-3,3-diphenyl-2(3H)-furanone chloride hydrate] | –
